According to patent US6565895B2, “Bismuth compounds for the treatment and prevention of mucositis” (GelTex Pharmaceuticals, Inc., priority 2000, dated 2003):

Tested on: oral mucositis in a hamster model following irradiation
Test: Hamster model of radiation-induced oral mucositis (mucositis score)
Format: in vivo, Golden Syrian hamsters
[1] = solution containing 3.5 mg/ml, 0.5 ml into left cheek pouch three times per day, Day 0 to Day 19, single radiation dose 35-38 Gy
[2] = solution containing 17.5 mg/ml, 0.5 ml into left cheek pouch three times per day, Day 0 to Day 19, single radiation dose 35-38 Gy

Excerpt: Briefly, male Golden Syrian hamsters (Charles River Laboratories), aged 5 to 6 weeks, with body weights of approximately 90 g at project commencement, were used. Animals were individually numbered using an ear punch and housed in small groups of approximately 6 animals per cage. Animals were acclimatized for at least one week prior to project commencement. During this period, the animals were observed daily in order to reject animals that presented in poor condition. Animals were fed with a standard hamster chow and water ad libitum.
Mucositis was induced using an acute radiation protocol. A single dose of radiation (35-38 Gy/dose) was administered to all animals on Day 0. Radiation was generated with a 250 kilovolt potential (15 mA) source at a focal distance of 50 cm, hardened with a 0.35 mm Cu filtration system. […] Prior to irradiation, animals were anesthetized with an intraperitoneal injection of sodium pentobarbital (80 mg/kg). The left buccal pouch was everted, fixed and isolated using a lead shield.
All animals were dosed with test material three times per day. A needleless tuberculin syringe containing 0.5 ml of the test compound was inserted into the left cheek pouch and the drug deposited into the pouch. Dosing began on Day 0 and continued until Day 19.
The mucositis score, weight change and survival were measured as outcomes in this study. For the evaluation of mucositis, the animals were anesthetized with inhalation anesthetics, and the left pouch everted. Mucositis was scored visually by comparison to a validated photographic scale, ranging from 0 for normal to 5 for severe ulceration (clinical scoring). In descriptive terms, this scale is defined as follows:
A score of 1-2 is considered to represent a mild stage of the disease, whereas a score of 3-5 is considered to indicate moderate to severe mucositis. Following visual scoring, a photograph was taken of each animal's mucosa using a standardized technique. At the conclusion of the experiment, all films were developed and the photographs randomly numbered. At least two independent trained observers graded the photographs in blinded fashion using the above-described scale (blinded scoring).

Molecule	improvement in mucositis scores (time with score of three or higher) [1]	improvement in mucositis scores (time with score of three or higher) [2]	further results
O=C([O-])c1ccccc1.O=C([O-])c1ccccc1.O=C([O-])c1ccccc1.[Bi+3] [bismuth benzoate, Bismuth Benzoate]	showed improvement in their mucositis scores	–	–
N[C@@H](CCC(=O)N[C@@H](CS)C(=O)NCC(=O)O)C(=O)O.[Bi] [bismuth glutathione, Bismuth Glutathione]	–	–	improvement in mucositis scores (time with score of three or higher) (hamster, in vivo): showed improvement in their mucositis scores
bismuth subgallate	–	did not show a statistically significant improvement	–
O=C([O-])[C@H]([O-])[C@@H]([O-])C(=O)[O-].[Bi+3].[K+] [bismuth potassium tartrate]	–	did not show a statistically significant improvement	–
bismuth (III) oxide	–	did not show a statistically significant improvement	–
O=C([O-])[O-].[Bi+3].[Bi+3].[O-2].[O-2] [bismuth subcarbonate]	–	did not show a statistically significant improvement	–
O=C([O-])c1ccccc1[O-].[Bi+3].[OH-] [bismuth salicylate basic]	showed improvement in their mucositis scores	–	–
Bismuth Ascorbate	–	–	improvement in mucositis scores (time with score of three or higher) (solution containing 1.75 mg/ml, 0.5 ml into left cheek pouch three times per day, Day 0 to Day 19, single radiation dose 35-38 Gy): showed improvement in their mucositis scores
O=[N+]([O-])[O-].O=[N+]([O-])[O-].O=[N+]([O-])[O-].O=[N+]([O-])[O-].[Bi+3].[Bi+3].[Bi+3].[Bi+3].[Bi+3].[O-2].[OH-].[OH-].[OH-].[OH-].[OH-].[OH-].[OH-].[OH-].[OH-] [bismuth subnitrate]	–	did not show a statistically significant improvement	–
O=C([O-])CC(O)(CC(=O)[O-])C(=O)[O-].[Bi+3] [bismuth citrate]	showed improvement in their mucositis scores	–	–
